Data: the NIST ThermoML archive (doi:10.1021/acs.jced.8b01062)
± gives the expanded uncertainty stated by the source.

How the values were obtained:
[1] = Molar enthalpy of transition or fusion; settings: Crystal; DSC
[2] = Crystal; DSC

Molar enthalpy of transition or fusion [1]: 4.64 ± 0.21 kcal/mol | Triple point temperature [2]: 465.45 ± 0.81 K
Structure (SMILES): CC#C[C@]1(O)CC[C@H]2[C@@H]3CCC4=CC(=O)CCC4=C3[C@@H](c3ccc(N(C)C)cc3)C[C@@]21C [mifepristone]
